The results in this text go back to patent US5736548A, “6-aryl pyrazolo[3,4-D] pyrimidin-4-ones and compositions and method of use thereof” (Sanofi, priority 1997, dated 1998).

The target of one assay is cGMP-PDE V (Homo sapiens, UniProt O76074). Put plainly: biochemical. More on the design: species or system various animal species and man. To be noted: for IC50: values separated by / and marked * are separate experimental runs. As for the experimental part: The cGMP-PDE and other PDE isozymes were isolated from cardiovascular tissues (heart and aorta) of various animal species and man by anion-exchange and affinity chromatography as described by Silver et al., Sec. Messeng. Phos. 13:13-25, 1991; PDE activity, in the presence and absence of test compounds was determined essentially as described by Thompson et al., Adv. Cyclic Nucleotide Res. 10:69-92. To determine the potency and selectivity of compounds as PDE inhibitors, compounds are screened for their effect on cyclic nucleotide hydrolysis at 10 μM. […] The IC50 values are calculated from concentration-response curves as described by Tallarida and Murray, Manual of Pharmacologic Calculations with Computer Programs, Procedure 8, Graded Dose-response, pp. 14-19, Springer-Verlag, New York, 1981.

For assay [1], the system named is Spontaneously hypertensive rats (SHR). Put plainly: Antihypertensive activity in conscious spontaneously hypertensive rats (mean arterial pressure). In kind it is in vivo. The following applies: Rattus norvegicus, 5 min, SHR iv. As for the experimental part: After a 2 day recovery from surgery, three baseline blood pressure measurements were made at 5 min intervals in conscious SHR. Compounds to be tested or vehicle were then administered intravenously in a dose-dependent manner (0.3-10 mg base/kg) while arterial pressure was recorded continuously on a polygraph. The mean arterial pressure response was measured 5 minutes after the administration of each dose of the test compound and the next dose given in a cumulative dose fashion. The response to each dose of the test compound was calculated as the difference from the mean of the three baseline measurements.

Assay [2] concerns nitroglycerin tolerant spontaneously hypertensive rats. Put plainly: Reversal of nitroglycerin-induced tolerance in spontaneously hypertensive rats. To be noted: for Percent (%) Reversal of Nitroglycerin-induced Tolerance: intravenously 5-10 minutes prior to nitroglycerin challenge. The assay is classed as in vivo. As for the experimental part:
Spontaneously hypertensive rats (17-25 weeks of age) were made nitroglycerin tolerant by repeated administration of high doses of nitroglycerin (100 mg/kg, s.c., 3 times/day for 3 consecutive days). To confirm tolerance challenge doses of nitroglycerin were administered intravenously at doses ranging from 1-300 μg/kg and the maximum change in mean arterial pressure (MAP) for each dose was recorded. Groups of tolerant rats were pretreated with the compounds of the invention (tolerant pretreated group) or with vehicle (0.05N NaOH) (tolerant vehicle pretreated group) intravenously 5-10 minutes prior to administration of challenge doses of nitroglycerin. The administration of challenge doses of nitroglycerin to non-tolerant rats (the non-tolerant group) caused a dose-dependent decrease in MAP of between 10 to 40 mm Hg. […] The area under the dose-MAP curve was calculated for the non-tolerant group and for the tolerant vehicle pretreated group and the tolerant pretreated group. The percent reversal of nitrate-inducedtolerance was calculated as follows:
Percent Reversal=(AUCtol -pretreated-AUCtol-veh)/(AUCnontol
AUCnontol =the area under the dose-MAP curve for the non-tolerant group.
AUCtol-veh =the area under the dose-MAP curve for the tolerant vehicle pretreated group.
AUCtol-pretreated =the area under the dose-MAP curve for the tolerant pretreated group.
The following table summarizes the results obtained from the testing of representative compounds of the invention.

Assay [3] deals with Spontaneously hypertensive rats (SHR). Put plainly: Antihypertensive activity in conscious spontaneously hypertensive rats (mean arterial pressure). In kind it is in vivo. To be noted: Rattus norvegicus, 5 min, po.
The mark [4] stands for this setting: read-out: Percent Inhibition cGMP-PDE V.
[5] abbreviates: 1 μM, read-out: Percent Inhibition cGMP-PDE V.
The mark [6] stands for this setting: 10 μM, read-out: Percent Inhibition cGMP-PDE V.
Where [7] appears, read: 0.1 μM, read-out: Percent Inhibition cGMP-PDE V.

Values joined by “and” are separate entries in the source; they are usually repeats but may differ in a detail not shown here. Identical values can stand only once. Like-named read-outs stand apart in the source and are kept apart here.

By IC50 is commonly meant the midpoint of a concentration-inhibition curve. As for `CCCOc1ccccc1-c1nc2n(C3CCCC3)[nH]c(C)c-2c(=O)n1` [1 (c), 1-cyclopentyl-3-methyl-6-(2-propoxyphenyl)-pyrazolo[3,4-d]pyrimidin-4-one], on cGMP-PDE V, the IC50 was 0.007 µM and 0.003 µM. Besides, the change in vivo at 1 mg/kg in assay [1] (5 minutes after dose) was -5%.

As for `CCc1[nH]n(C2CCCC2)c2nc(-c3cccc(-n4ccnc4)c3)nc(=O)c1-2` [24 (c), 1-cyclopentyl-3-ethyl-6-[3-(1-imidazolyl)phenyl]pyrazolo-[3,4-d]pyrimidin-4-one], 0.13 µM corresponded to half-maximal inhibition on cGMP-PDE V (IC50). The ED25 in assay [1] worked out at 12.7 mg/kg. For the same molecule, in assay [1] (5 minutes after dose), the change in vivo at 3 mg/kg is -13% and the change in vivo at 10 mg/kg was -21%.

`CCc1[nH]n(C2CCCC2)c2nc(-c3cccc(OCCN4CCOCC4)c3)nc(=O)c1-2` [13 (b), 1-cyclopentyl-3-ethyl-6-[3-[2-(4-morpholinyl)ethoxy]phenyl]-pyrazolo[3,4-d]pyrimidin-4-one] had an IC50 against cGMP-PDE V of 0.107 µM. Also, the “Percent (%) Reversal of Nitroglycerin-induced Tolerance” value (from here on “Percent (%) Reversal”) in assay [2] (0.3 mg/kg) was 58%. In assay [1], this molecule showed an ED25 of 9.5 mg/kg. Further, the change in vivo at 0.3 mg/kg in assay [1] (0.3 mg/kg, 5 minutes after dose) is -11%. Besides, in assay [1] (5 minutes after dose), the change in vivo at 1 mg/kg is -14% and the change in vivo at 3 mg/kg is -19%. The change in vivo at 30 mg/kg in assay [3] is -58%.

Take `CCCOc1ccccc1-c1nc2n(C3CCCC3)[nH]c(CC)c-2c(=O)n1` [Example 6, 1-cyclopentyl-3-ethyl-6-(2-propoxyphenyl)-pyrazolo[3,4-d]pyrimidin-4-one]: the IC50 on cGMP-PDE V was 0.0016 µM. For the same molecule, the “Percent (%) Reversal” value in assay [2] (1.0 mg/kg) came out at 49%. In addition, the change in vivo at 10 mg/kg in assay [1] (5 minutes after dose) was -1%.

`CCc1[nH]n(C2CCCC2)c2nc(-c3ccccc3C)nc(=O)c1-2` [Example 3, 1-cyclopentyl-3-ethyl-6-(2-methylphenyl)-pyrazolo[3,4-d]pyrimidin-4-one]: half-maximal inhibition against cGMP-PDE V (IC50) required 0.2 µM. Also, in assay [1] (5 minutes after dose), the change in vivo at 1 mg/kg was -7%.

Consider `CCOc1ccccc1-c1nc2n(C3CCCC3)[nH]c(CC)c-2c(=O)n1` [Example 4, 1-cyclopentyl-3-ethyl-6-(2-ethoxyphenyl)-pyrazolo[3,4-d]pyrimidin-4-one], for which it took 0.0058 µM to reach half-maximal inhibition against cGMP-PDE V (IC50). Also, the change in vivo at 10 mg/kg in assay [1] (5 minutes after dose) was -13%.

In turn, `CCc1[nH]n(C2CCCC2)c2nc(-c3ccccc3OC)nc(=O)c1-2` [Example 5, 1-cyclopentyl-3-ethyl-6-(2-methoxyphenyl)-pyrazolo[3,4-d]pyrimidin-4-one] yielded an IC50 at cGMP-PDE V of 0.087 µM. Moreover, the change in vivo at 1 mg/kg in assay [1] (5 minutes after dose) is -8%.

For the molecule `CCc1nn(C2CCCC2)c2nc(-c3ccc(-n4ccnc4)cc3)[nH]c(=O)c12` [8 (a), 1-cyclopentyl-3-ethyl-6-[4-(1-imidazolyl)phenyl]-pyrazolo-[3,4-d] pyrimidin-4-one 1/2 hydrate], the IC50 against cGMP-PDE V is 0.41 µM and 0.43 µM. The “Percent (%) Reversal” value in assay [2] (0.3 mg/kg) was determined as 5%. Also, in assay [1], the ED25 is 5.7 mg/kg. Also, in assay [1] (5 minutes after dose), the change in vivo at 3 mg/kg was -20% and the change in vivo at 10 mg/kg is -35%. In addition, in assay [3], the change in vivo at 30 mg/kg was -81%.

Regarding `CCc1nn(C2CCCC2)c2nc(-c3ccc(OCCN4CCOCC4)c(OCCN4CCOCC4)c3)[nH]c(=O)c12` [25 (b), 1-cyclopentyl-3-ethyl-6-[3,4-[2-(4-morpholinyl)ethoxy]phenyl]pyrazolo[3,4-d]pyrimidin-4-one], the IC50 against cGMP-PDE V is 0.014 µM and 0.051 µM. Also, the ED25 in assay [1] was determined as 4.5 mg/kg. In addition, in assay [1] (5 minutes after dose), the change in vivo at 1 mg/kg was -18%, the change in vivo at 3 mg/kg is -27% and the change in vivo at 10 mg/kg was -38%. Also, the change in vivo at 10 mg/kg in assay [3] (10 mg/kg) was -18%.

As to `CCc1[nH]n(C2CCCC2)c2nc(-c3cccc(OCCN4CCCC4)c3)nc(=O)c1-2` [22 (b), 1-cyclopentyl-3-ethyl-6-[3-[2-(1-pyrrolidinyl)ethoxy]phenyl]pyrazolo[3,4-d]pyrimidin-4-one], on cGMP-PDE V, half-maximal inhibition (IC50) was put at 0.14 µM. In assay [1], this molecule showed an ED25 of 17.9 mg/kg. Moreover, the change in vivo at 10 mg/kg in assay [1] (5 minutes after dose) is -18%.

Turning to `O=[N+]([O-])OCC(CO[N+](=O)[O-])O[N+](=O)[O-]` [nitroglycerin, reference compound], the “hypotensive response to nitroglycerin challenge, tolerant vehicle pretreated group (in words)” value in assay [2] (tolerant rats, vehicle pretreated, nitroglycerin 1-300 μg/kg iv) is on record as “significant reduction of the hypotensive response”.

On cGMP-PDE V, `C=CCOc1ccccc1-c1nc2c(c(CC)nn2C2CCCC2)c(=O)[nH]1` [9 (b), 1-cyclopentyl-3-ethyl-6-[2-(CH2 =CH--CH2 O)phenyl]pyrazolo[3,4-d]pyrimidin-4-one] registered an IC50 of 0.0049 µM. Further, the change in vivo at 10 mg/kg in assay [1] (5 minutes after dose) was -19%.

What is called inhibition is the drop in the measured response relative to a control, in per cent. As to `CCCOc1ccccc1-c1nc2[nH]ncc2c(=O)[nH]1` [17 (c), 6-(2-propoxyphenyl)pyrazolo[3,4-d]pyrimidin-4-one 1/4 hydrate], at cGMP-PDE V (setting [4]), the inhibition at 0.1 µM came to 14%, the inhibition at 1 µM was determined as 19% and the inhibition at 10 µM was found to be 39%.

Regarding `CCc1[nH]n(C2CCCC2)c2nc(-c3ccccc3O)nc(=O)c1-2` [Example 7, 1-cyclopentyl-3-ethyl-6-(2-hydroxyphenyl)pyrazolo[3,4-d]pyrimidin-4-one], the inhibition at 1 µM on cGMP-PDE V (setting [5]) came out at 20%. In addition, at cGMP-PDE V (setting [6]), the inhibition at 10 µM turned out to be 51%.

Regarding `CCOc1cc(N(CC)CC)ccc1-c1nc2n(C3CCCC3)[nH]c(CC)c-2c(=O)n1` [37 (b), 1-cyclopentyl-3-ethyl-6-[2-ethoxy-4-(diethylamino)phenyl]pyrazolo[3,4-d]pyrimidin-4-one], the inhibition at 0.1 µM on cGMP-PDE V (setting [7]) is 31%. Moreover, on cGMP-PDE V (setting [5]), the inhibition at 1 µM was 73%.

On cGMP-PDE V, `CCc1[nH]n(C2CCCC2)c2nc(-c3cccc(OCC(=O)O)c3)nc(=O)c1-2` [Example 21, 1-cyclopentyl-3-ethyl-6-[3-(carboxymethoxy)phenyl]pyrazolo[3,4-d]pyrimidin-4-one] returned an IC50 of 0.093 µM. Further, the change in vivo at 10 mg/kg in assay [1] (5 minutes after dose) is -1%.

Turning to `CCOc1cc(-n2ccnc2)ccc1-c1nc2n(C3CCCC3)[nH]c(CC)c-2c(=O)n1` [46 (c), 1-cyclopentyl-3-ethyl-6-[4-(1-imidazolyl)-2-ethoxyphenyl]pyrazolo[3,4-d]pyrimidin-4-one], the inhibition at 0.1 µM on cGMP-PDE V (setting [7]) stood at 26%. Also, on cGMP-PDE V (setting [5]), the inhibition at 1 µM was found to be 76%. Further, the inhibition at 10 µM on cGMP-PDE V (setting [6]) stood at 90%. For the same molecule, the IC50 against cGMP-PDE V amounted to 0.018 µM.

`CCOc1cc(Cl)ccc1-c1nc2n(C3CCCC3)[nH]c(CC)c-2c(=O)n1` [29 (b), 1-cyclopentyl-3-ethyl-6-(4-chloro-2-ethoxyphenyl)pyrazolo[3,4-d]pyrimidin-4-one]: the IC50 against cGMP-PDE V is 0.0074 µM and 0.0084 µM.

`CCc1[nH]n(C2CCCC2)c2nc(-c3cccc(OCCN4CCSCC4)c3)nc(=O)c1-2` [41 (c), 1-cyclopentyl-3-ethyl-6-[3-[2-(4-thiomorpholinyl)ethoxy]phenyl]pyrazolo[3,4-d]pyrimidin-4-one]: the inhibition at 0.1 µM on cGMP-PDE V (setting [7]) amounted to 46%. Also, at cGMP-PDE V (setting [5]), the inhibition at 1 µM is 56%.

With `CCc1[nH]n(C2CCCC2)c2nc(-c3ccc(OC)c(OCCN4CCOCC4)c3)nc(=O)c1-2` [35 (b), 1-cyclopentyl-3-ethyl-6-[4-methoxy-3-[2-(4-morpholinyl)ethoxy]phenyl]pyrazolo[3,4-d]pyrimidin-4-one], on cGMP-PDE V (0.01 μM, read-out: Percent Inhibition cGMP-PDE V), the inhibition at 0.01 µM was determined as 13%. Also, the inhibition at 0.1 µM on cGMP-PDE V (setting [7]) was 58%.

For the molecule `CCc1[nH]n(C2CCCC2)c2nc(-c3cccc(OCC(=O)N4CCOCC4)c3)nc(=O)c1-2` [40 (d), 1-cyclopentyl-3-ethyl-6-[3-(4-morpholinylcarbonylmethoxy)-phenyl]pyrazolo[3,4-d]pyrimidin-4-one], the inhibition at 0.1 µM on cGMP-PDE V (setting [7]) stood at 47%. Besides, the inhibition at 1 µM on cGMP-PDE V (setting [5]) was 74%.

With `CCc1[nH]n(C2CCCC2)c2nc(-c3cccc(OCCN4CCCCC4)c3)nc(=O)c1-2` [19 (b), 1-cyclopentyl-3-ethyl-6-[3-[2-(1-piperidinyl)ethoxy]phenyl]pyrazolo[3,4-d]pyrimidin-4-one], the midpoint of inhibition at cGMP-PDE V, the IC50, lay at 0.073 µM. This molecule registered an ED25 in assay [1] of 12.5 mg/kg. Moreover, the change in vivo at 10 mg/kg in assay [1] (5 minutes after dose) is -19%.
